Measured values reported in PubChem BioAssay (NCI).
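Compound exposure: 48 hours, 5 concentrations, 96-well plates. Definition used: TGI = concentration required for complete inhibition of growth.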

Columns and labels:
Assay in all cases: inhibition of tumour cell growth, NCI panel, 48 h
SNB-75 CNS = test system: SNB-75 CNS
NCI/ADR-RES ovarian = test system: NCI/ADR-RES ovarian
OVCAR-5 ovarian = test system: OVCAR-5 ovarian
IGROV1 ovarian = test system: IGROV1 ovarian
HCT-15 colon = test system: HCT-15 colon
SW-620 colon = test system: SW-620 colon
SK-MEL-2 melanoma = test system: SK-MEL-2 melanoma
MDA-N = test system: MDA-N
T-47D breast = test system: T-47D breast
PC-3 prostate = test system: PC-3 prostate
HS 578T breast = test system: HS 578T breast
HT29 colon = test system: HT29 colon
HCT-116 colon = test system: HCT-116 colon
SF-268 CNS = test system: SF-268 CNS
U251 CNS = test system: U251 CNS
NCI-H522 lung = test system: NCI-H522 lung
NCI-H226 lung = test system: NCI-H226 lung
OVCAR-4 ovarian = test system: OVCAR-4 ovarian
MDA-MB-435 = test system: MDA-MB-435
M14 melanoma = test system: M14 melanoma
UACC-257 melanoma = test system: UACC-257 melanoma
CCRF-CEM leukemia = test system: CCRF-CEM leukemia
SK-OV-3 ovarian = test system: SK-OV-3 ovarian
DU-145 prostate = test system: DU-145 prostate
ACHN renal = test system: ACHN renal
HL-60(TB) leukemia = test system: HL-60(TB) leukemia
RXF 393 renal = test system: RXF 393 renal
RPMI-8226 leukemia = test system: RPMI-8226 leukemia
MOLT-4 leukemia = test system: MOLT-4 leukemia
A549 NSCLC = test system: A549 NSCLC
MDA-MB-231 breast = test system: MDA-MB-231 breast
SK-MEL-5 melanoma = test system: SK-MEL-5 melanoma
HOP-92 NSCLC = test system: HOP-92 NSCLC
SF-539 CNS = test system: SF-539 CNS
MCF7 breast = test system: MCF7 breast
TK-10 renal = test system: TK-10 renal
LOX IMVI melanoma = test system: LOX IMVI melanoma
HOP-62 NSCLC = test system: HOP-62 NSCLC
SNB-19 CNS = test system: SNB-19 CNS
OVCAR-3 ovarian = test system: OVCAR-3 ovarian
NCI-H23 lung = test system: NCI-H23 lung
KM12 colon = test system: KM12 colon
HCC-2998 colon = test system: HCC-2998 colon
OVCAR-8 ovarian = test system: OVCAR-8 ovarian
A498 renal = test system: A498 renal
SF-295 CNS = test system: SF-295 CNS
SK-MEL-28 melanoma = test system: SK-MEL-28 melanoma
CAKI-1 renal = test system: CAKI-1 renal
K-562 leukemia = test system: K-562 leukemia
UACC-62 melanoma = test system: UACC-62 melanoma
SN12C renal = test system: SN12C renal
COLO 205 colon = test system: COLO 205 colon
UO-31 renal = test system: UO-31 renal
EKVX NSCLC = test system: EKVX NSCLC
SR leukemia = test system: SR leukemia
NCI-H460 lung = test system: NCI-H460 lung
786-0 renal = test system: 786-0 renal
MALME-3M melanoma = test system: MALME-3M melanoma

Measured: TGI

c1ccc2c(c1)[nH]c1c3ccccc3sc21
> 100 µM: all assays above

CCOC(=O)/C(=C\c1c(C)[nH]c2ccccc12)P(=O)(OCC)OCC
not listed: SK-MEL-2 melanoma | PC-3 prostate | CCRF-CEM leukemia | HL-60(TB) leukemia | HOP-92 NSCLC | UO-31 renal
> 100 µM: all other assays above
